# Measurements published in ChEMBL document CHEMBL1123175, “Synthesis and biological activity of several amino nucleoside-platinum(II) complexes” (1986).
# Experiments:
# L1210 [1] = assay: Compound was tested for the inhibition of the transport of methionine into L1210 cells at the 10 uM concentration after <20 min; format: functional; conditions: Mus musculus
# L1210 [2] = assay: Compound was tested for the inhibition of the transport of aminoisobutyric acid into L1210 cells at the 10 uM concentration after <20 min; format: functional; conditions: Mus musculus
Sequence,inhibition (L1210 [1]) [%],inhibition (L1210 [2]) [%]
TRANSPLATIN,< 5,< 5
CISPLATIN,10,15
